Where two headings read alike, the source gives them in different places.
Experiments:
U118MG cells = experiment: Lipid peroxidation (TBARS); assay type: cell-based, human; settings: IC50 concentration, PDT, up to 24 h postirradiation, % of untreated control
Description: (§1) Further analysis was conducted to elucidate mitochondrial- or lysosomal-localization-dependent cell death mechanisms. For this purpose, lipid peroxidation, a major end product of ROS-mediated cellular damage, was assessed. […] Moreover, the pronounced rise in lipid peroxidation was predominantly evident during the 24 h resting stage rather than immediately after light exposure, as observed with NSeAze. The apparent increase in lipid peroxidation explains the damage to the membranous structures of cells, such as mitochondria, lysosomes, and plasma membranes (Figure a,b). This was further confirmed by the detection of free unsaturated lipid content of cells, which is released upon disruption of the membranous structures.
(§2) Determination of lipid peroxidation
(§3) The effect of NSeMorph and NSeAze on lipid peroxidation was investigated using thiobarbituric acid reactive substances (TBARS) method,1 which is based on measuring malondialdehyde (MDA) levels, the end-product of lipid peroxidation. For this purpose, cells were seeded in 6-well plates at a density of 1 × 10^6 cells/well and incubated overnight. Afterwards, both compounds were administered in IC50 values according to the above-mentioned PDT protocol. The resulting lipid peroxidation was measured following the immediate irradiation and after 24 h of resting stage. After the indicated time periods, cells were harvested and lysed with a RIPA cell lysis buffer (Merck, Germany). The lysates were then prepared according to the TBARS assay protocol. Briefly, the samples were mixed with 0.8% thiobarbituric acid prepared in 20% trichloroacetic acid solution and then incubated for 2 h at 95 °C. Absorbance of the resulting pink-to-red color was measured at 532 nm with a spectrophotometer (Thermo, Germany). Data were expressed as % compared to untreated control group and normalized to cell viability rates (n=6). […]

U87MG cells = experiment: Lipid peroxidation (TBARS); assay type: cell-based, human; settings: IC50 concentration, PDT, up to 24 h postirradiation, % of untreated control
Description: as §1, §2, §3

[1] = tested on: U118MG glioblastoma cells; experiment: MTT cell viability, dark and PDT; assay type: cell-based, human
Description: (§4) The time- and concentration-dependent effects of NSeAze and NSeMorph on glioblastoma cells were determined by using the MTT assay (Figure S7). In this regard, U118MG and U87MG cells were administered with NSeMorph (0.5–20 μM) and NSeAze (0.01–2.5 μM) for 24 h to evaluate their dark toxicity. Before PDT application, both cell lines were treated as indicated for 1 h and then exposed to 660 nm LED light for 2 and 1 h, respectively (Figure ). Following overnight incubation, the resulting cell viability was calculated and compared to the effect of both compounds in the absence of irradiation. […]
(§5) Cell Culture and Treatment
(§6) Human glioblastoma cell lines (U118MG and U87MG) and healthy mouse fibroblast cells (L929) were cultured in DMEM high glucose medium supplemented with 10% fetal bovine serum (FBS), 2 mM glutamine, 1% penicillin/stremptomycin, 0.5% amphotericin B, and incubated at 37 °C with 5% CO2. NSeMorph and NSeAze were dissolved in cell culture-grade DMSO and further diluted in complete medium for experimental use. For phototoxicity analysis, cells were administered with NSeMorph […]
(§7) mW/cm2) irradiation for 2 h in NSeMorph-treated groups and 1 h in NSeAze-treated groups. Then, each group were incubated for further 24 h in the dark to allow for resting. On the other hand, the dark toxicity of both agents was detected following the same treatment under identical conditions without LED irradiation. To determine the involvement of distinct ROS types, cells were pretreated for 1 h with selective […]
(§8) scavengers prior to photosensitizer exposure. The scavengers included NAC (5 mM), NaN3 (5 mM), histidine (5 mM), Tiron (100 µM), mannitol (25 mM) and Trolox (25 µM).
(§9) Cell viability was then assessed following irradiation. For index calculations, all cells were treated with the increasing concentrations (0.5-500 µM) of NSeMorph and NSeAze for 24 h. Final DMSO concentrations were kept below 0.5% (v/v) in all […]
(§10) PI=IC50, dark /IC50, light
(§11) SI= IC50, light, healthy cells/IC50, light, cancer cells
(§12) TI= IC50, dark, healthy cells/IC50, light, cancer cells
(§13) The viability of cells treated with NSeMorph and NSeAze was determined with MTT (3-[4,5-dimethylthiazol-2-yl]-2,5-diphenyltetrazoliumbromide) assay. Following the administration of both compounds, the medium was discarded and cells were treated with fresh media containing MTT (0.5 mg/ml) for 2-4 h at 37 °C. Formazan crystals were then solubilized in 10% SDS in 0.01 N HCl, and absorbance was measured at 490 and 570 nm wavelength using microplate reader (Multiskan Sky, Thermo Scientific). Data were normalized to vehicle (DMSO)-treated controls. IC50 values were calculated using nonlinear regression analysis in GraphPad Prism 9.02 (GraphPad Software Inc.). All experiments were performed in technical and biological replicates

U87MG glioblastoma cells = experiment: MTT cell viability, dark and PDT; assay type: cell-based, human
Description: as §4, §5, §6, §7, §8, §9, §10, §11, §12, §13

[2] = tested on: L929 healthy fibroblast cells; experiment: MTT cell viability, dark and PDT; assay type: cell-based; settings: Mus musculus
Description: as §4, §5, §6, §7, §8, §9, §10, §11, §12, §13

[3] = Homo sapiens, U-118-MG, 1 h incubation, 660 nm LED 2 h (NSeMorph) or 1 h (NSeAze), read-out: IC50 (light)
[4] = Homo sapiens, U-118-MG, 24 h, dark, 24 h, read-out: IC50 (dark)
[5] = Homo sapiens, U-87 MG, 1 h incubation, 660 nm LED 2 h (NSeMorph) or 1 h (NSeAze), read-out: IC50 (light)
[6] = Homo sapiens, U-87 MG, 24 h, dark, 24 h, read-out: IC50 (dark)
[7] = L929, 1 h incubation, 660 nm LED 2 h (NSeMorph) or 1 h (NSeAze), read-out: IC50 (light)
[8] = L929, dark, 24 h, read-out: IC50 (dark)
[9] = 1 h incubation, 660 nm LED 2 h (NSeMorph) or 1 h (NSeAze), read-out: IC50 (light)

| SMILES | Lipid peroxidation (U118MG cells) [%] | Lipid peroxidation (U87MG cells) [%] | IC50 ([1]; Homo sapiens, U-118-MG, 1 h, 660 nm LED 1 h, read-out: IC50 (light)) [µM] | IC50 [1, 3] [µM] | IC50 [1, 4] [µM] | IC50 (U87MG glioblastoma cells; Homo sapiens, U-87 MG, 1 h, 660 nm LED 1 h, read-out: IC50 (light)) [µM] | IC50 (U87MG glioblastoma cells; [5]) [µM] | IC50 (U87MG glioblastoma cells; [6]) [µM] | IC50 (U87MG glioblastoma cells; dark, 24 h, read-out: IC50 (dark)) [µM] | IC50 [2, 7] [µM] | IC50 [2, 8] [µM] | IC50 [1, 9] [µM] | IC50 (U87MG glioblastoma cells; [9]) [µM] |
| --- | --- | --- | --- | --- | --- | --- | --- | --- | --- | --- | --- | --- | --- |
| c1cc2nc3ccc(=[N+]4CCC4)cc-3[se]c2cc1N1CCC1 [NSeAze] | 245.24 ± 5.92 | 309.64 ± 13.20 | 0.461 | 0.46 ± 0.02 | 60.4 ± 2.6 | 0.456 | 0.38 | 65.8 ± 2.51 | 65.9 ± 2.5 | < 1 | 129 ± 5.1 |  |  |
| c1cc2nc3ccc(=[N+]4CCOCC4)cc-3[se]c2cc1N1CCOCC1 [NSeMorph] | 244.22 ± 2.38 | 216.73 ± 3.98 |  | 8 | 375 ± 17.4 |  | 15.8 | > 500 |  | > 20 | > 500 | 8.02 ± 0.34 | 15.8 ± 0.84 |

Reference: publication PMC12648288, “Drastic Impact of Donor Substituents on Xanthenes in the PDT of Glioblastoma” (JACS Au, 2025)
